Consider 7 compounds from patent US20130333059A1, “HOX COMPOSITIONS AND METHODS” (THE JOHNS HOPKINS UNIVERSITY, priority 2006, published 2013).

One assay has as its system TGFα and HB-EGF. Briefly: Immunoblot of TGFα and HB-EGF in MCF-10A-B7 cells. The format is cell-based, human. The settings on record: 0.1 μM AG1478, 24 hours.
For another assay, the system named is MDCK-B7 cells. Briefly: Matrigel invasion assay, pooled MDCK-B7 cells. The format is cell-based, canine. The settings on record: Su5402 40 μmol/L; for invasive phenotype / invasive ability of MDCK-B7 cells: 36 hours, Bay43-9006 4 μmol/L, U0126 10 μmol/L, either inhibitor alone or in combination. As for the experimental part: (§1) Matrigel invasion assay. Into the Biocoat Matrigel invasion chambers (BD Biosciences) were seeded 4×10^4 cells in 2% FBS medium, and in the lower wells 10% FBS was added as the chemoattractant. After 36 hours of incubation, the filters were stained with crystal violet, and the number of cells that had penetrated through the filter was counted under ×20 magnification (10 randomly selected high-power fields). For inhibition of invasion assays, the FGF receptor inhibitor Su5402 (40 μmol/L), the MAPK/extracellular signal-regulated kinase kinase (MEK) inhibitor U0126 (10 μmol/L), and the Raf inhibitor Bay43-9006 (4 μmol/L; Calbiochem, San Diego, Calif.) were added to the medium in the top chamber at the final concentrations indicated. Ras and RhoA activation assay. Cell lysates were incubated with glutathione S-transferase (GST)-Raf-1 Ras binding domain or GST-Rhotekin RhoA binding domain agarose beads (Upstate, Charlottesville, Va.). GTP-bound Ras or RhoA that precipitated with the beads were detected by SDS-PAGE and immunoblotting with anti-Ras antibody (Santa Cruz Biotechnology) or anti-RhoA antibody (Upstate).

The subject of the next assay is Ras. Description: Ras activation assay, MDCK-B7 cells. It counts as cell-based, canine. As for the experimental part:
as §1

For assay [1], the system named is MCF-7-B7 cells. Description: Soft agar colony formation, MCF-7-B7 cells. It counts as cell-based, human.
Assay [2] has as its system MCF-7-B7 cells. Briefly: Xenograft of MCF-7-B7 cells in athymic mice. It counts as in vivo. The settings on record: absence of exogenous estrogen supplement. As for the experimental part: 3×10^6 cells of MCF-7-vec or MCF-7-B7 were suspended in 100 μl PBS/Matrigel (1:1) and injected s.c into the female 3- to 4-week-old BALB/c nu/nu athymic mice (Harlan, Sprague Dawley, Madison, Wis.), which simultaneously received a 60-day slow release pellet containing 0.72 mg of 17β-estradiol and/or 5 mg tamoxifen (Innovative Research of America, Southfield, Mich.). Fulvestrant was dissolved in 100% ethanol and diluted in sesame oil; 5 mg was injected s.c. twice a week^20. Animals were observed once a week. At necropsy, primary tumors, liver, lung and spleen were evaluated for the presence of macroscopic tumors. Tissue samples of the primary tumor and organs were fixed in 4% paraformaldehyde and stained with H&E to assess histomorphology.

The test system of assay [3] is EGFR/HER2 and ERα signaling. Description: Immunoblot of EGFR/HER2, MAPK, ERα signaling in MCF-7-B7 cells. The format is cell-based, human. (Immunoblotting shows a protein as a band on a membrane.)
The test system of another assay is MCF-7-TMR cells. Briefly: Colony formation and ERE-Luc activity, MCF-7-TMR cells. The format is cell-based, human.
Assay [4] has as its system EGFR, HER2, ERα and HOXB7. Briefly: Immunoblot of EGFR, HER2, ERα, HOXB7 in long-term tamoxifen treated MCF-7 (MCF-7-TMR) cells. The format is cell-based, human.
Assay [5] has as its system Her2 positive transgenic mammary tumor cells. Description: Sensitivity to anti-ER drugs, Her2 positive transgenic mammary tumor cells. It counts as cell-based, mouse. The settings on record: cells do not express ER.
Assay [6] concerns Her2/Hoxb7 transgenic mouse mammary tumor cells. Description: Sensitivity to anti-ER drugs, Her2/Hoxb7 transgenic mouse mammary tumor cells. The format is cell-based.
The test system of the next assay is LTED cells. The settings on record: Martin La., 2005; cited from earlier work.
For assay [7] the following is noted: in the clinic; cited from earlier work.
A further assay deals with BT474 cells. Briefly: Soft agar colony formation, BT474 cells. It counts as cell-based, human. The note with it: 1 μM gefitinib and 1 μM tamoxifen.
Another assay deals with ERE-luc reporter. Briefly: ERE-tk-Luc reporter assay, MCF-7-B7 cells. The format is cell-based, human. The settings on record: 100 nM tamoxifen, 10 nM E2, 24 h. As for the experimental part: Transient transfection was performed with the respective promoter-luciferase constructs. Results were normalized to the level of B-galactosidase activity in the samples. The EGFR promoter reporter plasmids were a kind gift of Dr. Alfred C. Johnson (Bethesda, Md.). ERE-tk-LUC was a generous gift from Dr. Elaine Alarid (Madison, Wis.).
Background: Reporter assays use an easily measured gene product as a stand-in for the process of interest.

Assay [8] has as its system EGFR/HER2 and ERα signaling. Briefly: Immunoblot of EGFR/HER2, MAPK, ERα signaling in MCF-7-vec cells. The settings on record: 1 μM tamoxifen, estrogen deprived medium, 48 hours. The format is cell-based, human.
The next assay concerns HOXB7, EGFR and HER2. Description: HOXB7, EGFR, HER2 expression in T47D cells upon tamoxifen. It counts as cell-based, human.
The next assay deals with HOXB7 promoter region. Briefly: CHIP analysis of T47D cells, HOXB7 promoter region. The format is cell-based, human. The note with it: 1 μM tamoxifen, 45 min.
[9] abbreviates: MCF-7 cells, 0.1 μM tamoxifen over time (0, 2, 4, 6 months).
The mark [10] stands for this setting: MCF-7 cells, 1 μM or 0.1 μM tamoxifen for at least 6 months.

Structures are written as SMILES. Entries after “also recorded” stand apart in the source; their conditions may differ.

For `COc1cc2ncnc(Nc3cccc(Cl)c3)c2cc1OC` [AG1478], the “elevated expression of TGFα and HB-EGF” value with TGFα and HB-EGF is on record as “significantly abrogated”.
`CNC(=O)c1cc(Oc2ccc(NC(=O)Nc3ccc(Cl)c(C(F)(F)F)c3)cc2)ccn1` [Bay43-9006]: the “invasive phenotype / invasive ability of MDCK-B7 cells” value (“invasive phenotype / invasive ability” for short) with MDCK-B7 cells was “complete suppression”; in the assay with MDCK-B7 cells (listed as BAY 43-9006), “block”.
For `Cc1c[nH]c(/C=C2\C(=O)Nc3ccccc32)c1CCC(=O)O` [Su5402], in the assay with MDCK-B7 cells, the “invasive phenotype / invasive ability” value is “reduce” and the “inhibition of invasion ability of MDCK-B7 cell” value is on record as around 80%. The “active form Ras (Ras-GTP form)” value with Ras is “attenuate”.
`N#CC(=C(/N)Sc1ccccc1N)/C(C#N)=C(\N)Sc1ccccc1N` [U0126]: the “invasive phenotype / invasive ability” value with MDCK-B7 cells is on record as “complete suppression; also recorded: block”.
As to `C[C@]12CC[C@@H]3c4ccc(O)cc4C[C@@H](CCCCCCCCC[S+]([O-])CCCC(F)(F)C(F)(F)F)[C@H]3[C@@H]1CC[C@@H]2O` (stereo partly shown) [fulvestrant], the “sensitivity to fulvestrant treatment in vitro” value in the assay with MCF-7-B7 cells [1] (MCF-7-B7, 1 μM Fulvestrant) is on record as “remained sensitive”; in the assay with MCF-7-TMR cells (MCF-7-TMR, 1 μM Fulvestrant), “remained sensitive”. Also, the “HOXB7-promoted colony formation in vitro” value in the assay with MCF-7-B7 cells [1] (in a dose-dependent manner) is recorded as “reduced”. The “tumor formation in vivo” value in the assay on MCF-7-B7 cells [2] (fulvestrant 10 mg/week) is recorded as “reduced”. The “levels of the autocrine/paracrine EGFR ligands (Amphiregulin and TGFα)” value in assay [3] (1 μM fulvestrant, 24 h) is recorded as “significant reduction”. In assay [3] (fulvestrant treatment), the “HOXB7 overexpression-related increases in EGFR and p44/42 MAPK activity” value is recorded as “reduced”. The “expression of EGFR and HER2” value in assay [4] (MCF-7-TMR cells, 1 μM fulvestrant, 24 h) was “significantly reduced”. The HOXB7 levels entry in [4] (MCF-7-TMR cells, 1 μM fulvestrant, 24 h, vs vehicle) is recorded as “lower”. For the same compound, the response to treatment entry is reported as “did not respond” in assay [5] and “strongly respond” in [6]. Moreover, the “sensitivity of LTED cells” value in the assay with LTED cells was “sensitive”. In addition, the “tamoxifen-relapsed / tamoxifen-resistant patients who respond” value in assay [7] is “nearly two-thirds”.
Turning to `COc1cc2ncnc(Nc3ccc(F)c(Cl)c3)c2cc1OCCCN1CCOCC1` [gefitinib], the “sensitivity of the cells to tamoxifen treatment” value in the assay on MCF-7-B7 cells [1] (1 μM tamoxifen in combination with 1 μM gefitinib) was “significantly re-sensitized”. For the same compound, in the assay on BT474 cells, the “effect on tamoxifen action in BT474 cells” value is given as “dramatically converted tamoxifen from a partial agonist to a potent antagonist”.
In the case of `CC/C(=C(\c1ccccc1)c1ccc(OCCN(C)C)cc1)c1ccccc1` [tamoxifen], the “growth (colonies in soft agar)” value in the assay with MCF-7-B7 cells [1] (estrogen-deprived conditions, tamoxifen 1 μM) is listed as “enhanced”. The “sensitivity to the inhibitory effects of tamoxifen in culture” value in the assay on MCF-7-B7 cells [1] (tamoxifen 1 μM, complete medium) is given as “loss of sensitivity”. For the same compound, in the assay on ERE-luc reporter, the “attenuation of estrogen-stimulated ERE-luc reporter activity” value is “inability”. In addition, the “effect on established tumors of MCF-7-B7 cells in nude mice” value in the assay with MCF-7-B7 cells [2] (tamoxifen 83.3 μg/day) is given as “no inhibitory effect”. Besides, in assay [3] (1 μM tamoxifen, 48 hours), the “effect on the expression of Cyclin D1 and Bcl-2” value is listed as “potent estrogen-like agonistic effect”; the “p44/42 MAPK activity and phosphorylation of ERα at serine 118” value is on record as “increased”. Besides, the “active forms of EGFR and HER2” value in [3] (1 μM tamoxifen, estrogen deprived medium, 48 hours) was “significantly higher level”. Moreover, the “activation of p44 MAPK and ER phosphorylation at Ser 118 site” value in assay [3] (1 μM tamoxifen, short period, MCF-7-B7) is recorded as “potently stimulates”. For the same compound, the “levels of active forms of EGFR and HER2” value in assay [3] (1 μM tamoxifen, short period, estrogen deprived) was “elevated levels”. Also, in [8], the “increase of active form of HER2” value is on record as “about 1.5 fold” and the “levels of the active form of EGFR” value was “reduction”. In addition, the “resistance to tamoxifen treatment (colony formation and ERE-Luc activity)” value in the assay with MCF-7-TMR cells (100 nM tamoxifen) is on record as “significant resistance”. For the same compound, in assay [4] (setting [9]), the “expression of EGFR/HER2 and ERα” value is on record as “concomitant increases”; the “levels of expression of HOXB7” value is “progressively increasing levels”. For the same compound, in assay [4] (setting [10]), the HOXB7 expression level result is “potently elevated”; the “expression of EGFR, HER2 and ERα” value is “elevated expression”. Further, in the assay with HOXB7, EGFR and HER2 (1 μM tamoxifen, short-term), the “expression of HOXB7” value is on record as “increased expression”. The “expression levels of EGFR and HER2” value in the assay with HOXB7, EGFR and HER2 (tamoxifen) is “induced”. In the assay on HOXB7 promoter region, the “binding of ERα to HOXB7 promoter region” value was “promoted binding”. Besides, the response to treatment entry in assay [5] is listed as “did not respond”. In addition, the response to treatment result in assay [6] is “not responding”. Further, the “sensitivity of LTED cells” value in the assay on LTED cells is listed as “refractory”.
